Laboratory results as given in ChEMBL document CHEMBL1201862, “PubChem BioAssay data set” (2004).
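Interpolation was linear, between the two tested concentrations surrounding the appropriate level; five concentrations were tested over 48 hours in 96-well plates. GI50 = concentration required for 50% inhibition of growth.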 The source made the active and inactive calls. Rule as the data show it: active = GI50 up to about 1.1 µM and inactive = higher.

Columns and labels:
Experiment in all cases: NCI tumour cell line growth inhibition, 48 h
MOLT-4 = test system: MOLT-4
TK-10 = test system: TK-10
NCI-H522 = test system: NCI-H522
RPMI-8226 = test system: RPMI-8226
RXF 393 = test system: RXF 393
SNB-75 = test system: SNB-75
Hs-578T = test system: Hs-578T
MDA-N = test system: MDA-N
SK-MEL-5 = test system: SK-MEL-5
DLD-1 = test system: DLD-1
SK-OV-3 = test system: SK-OV-3
MDA-MB-231 = test system: MDA-MB-231
HT-29 = test system: HT-29
M14 = test system: M14
SNB-78 = test system: SNB-78
OVCAR-3 = test system: OVCAR-3
CCRF-CEM = test system: CCRF-CEM
UACC-62 = test system: UACC-62
SF-295 = test system: SF-295
PC-3 = test system: PC-3

CC1(C)N=C(N)N=C(N)N1c1ccc(CCCCc2ccc(S(=O)(=O)F)cc2Cl)c(Cl)c1
GI50 (MOLT-4): 0.995 µM (active) | GI50 (TK-10): 27.7 µM (inactive) | GI50 (NCI-H522): 4.68 µM (inactive) | GI50 (RPMI-8226): 3.05 µM (inactive) | GI50 (RXF 393): 14.2 µM (inactive) | GI50 (SNB-75): 9.23 µM (inactive) | GI50 (Hs-578T): 74 µM (inactive) | GI50 (MDA-N): 0.916 µM (active) | GI50 (SK-MEL-5): 1.05 µM (active) | GI50 (DLD-1): 1.57 µM (inactive) | GI50 (SK-OV-3): 106 µM (inactive) | GI50 (MDA-MB-231): 10.5 µM (inactive) | GI50 (HT-29): 1.53 µM (inactive) | GI50 (M14): 1.63 µM (inactive) | GI50 (SNB-78): 11.6 µM (inactive) | GI50 (OVCAR-3): 5.71 µM (inactive) | GI50 (CCRF-CEM): 1.62 µM (inactive) | GI50 (UACC-62): 0.258 µM (active) | GI50 (SF-295): 1.84 µM (inactive) | GI50 (PC-3): 1.11 µM (active)

NC(=O)c1[nH]nc(C2OC(CO)C(O)C2O)c1O (stereo not given)
GI50 (MOLT-4): 0.561 µM (active) | GI50 (TK-10): 91.6 µM (inactive) | GI50 (NCI-H522): 37.2 µM (inactive) | GI50 (RPMI-8226): 0.682 µM (active) | GI50 (RXF 393): 8.99 µM (inactive) | GI50 (SNB-75): 101 µM (inactive) | GI50 (Hs-578T): 94 µM (inactive) | GI50 (MDA-N): 3.39 µM (inactive) | GI50 (SK-MEL-5): 64.3 µM (inactive) | GI50 (DLD-1): 1.45 µM (inactive) | GI50 (SK-OV-3): 84.3 µM (inactive) | GI50 (MDA-MB-231): 8.59 µM (inactive) | GI50 (HT-29): 0.851 µM (active) | GI50 (M14): 95.3 µM (inactive) | GI50 (SNB-78): 37.7 µM (inactive) | GI50 (OVCAR-3): 19.6 µM (inactive) | GI50 (CCRF-CEM): 0.507 µM (active) | GI50 (UACC-62): 4.38 µM (inactive) | GI50 (SF-295): 0.851 µM (active) | GI50 (PC-3): 3.02 µM (inactive)
